According to the NIST ThermoML archive (doi:10.1016/j.jct.2007.11.010):

Test: xn = mol fraction of the nth substance listed
Conditions: 101 kPa, Liquid

OCCN1CCOCC1 [4-morpholineethanol] + CCC(C)O
mass density [kg/m3]
Conditions	293.15 K	298.15 K	303.15 K	313.15 K	323.15 K
x1 = 0.0542	824.77	821.68	817.07	809.49	804.37
x1 = 0.1098	843.95	840.73	836.08	828.46	823.27
x1 = 0.1855	869.23	865.83	861.15	853.47	848.18
x1 = 0.2431	887.71	884.17	879.46	871.75	866.4
x1 = 0.2876	901.62	897.97	893.25	885.52	880.12
x1 = 0.3266	913.58	909.84	905.11	897.36	891.91
x1 = 0.3854	930.89	927.02	922.28	914.51	909.01
x1 = 0.4277	943.01	939.04	934.29	926.51	920.97
x1 = 0.4822	958.03	953.95	949.18	941.4	935.81
x1 = 0.5189	967.85	963.68	958.92	951.14	945.51
x1 = 0.5672	980.37	976.09	971.33	963.55	957.89
x1 = 0.6044	989.72	985.36	980.59	972.82	967.14
x1 = 0.6438	999.36	994.93	990.17	982.4	976.69
x1 = 0.6798	1007.93	1003.44	998.68	990.92	985.19
x1 = 0.7355	1020.77	1016.16	1011.41	1003.67	997.91
x1 = 0.7942	1033.69	1028.98	1024.24	1016.52	1010.73
x1 = 0.8427	1044.13	1039.33	1034.6	1026.9	1021.09
x1 = 0.8785	1051.72	1046.85	1042.13	1034.45	1028.62
x1 = 0.9235	1061.1	1056.15	1051.43	1043.77	1037.92
x1 = 0.9844	1073.45	1068.39	1063.69	1056.06	1050.18

OCCN1CCOCC1 [4-morpholineethanol] + CCCCO
mass density [kg/m3]
Conditions	293.15 K	298.15 K	303.15 K	313.15 K	323.15 K
x1 = 0.0652	832.8	829	825.1	817.44	809.9
x1 = 0.1125	849.1	845.21	841.24	833.54	826.03
x1 = 0.1865	873.74	869.7	865.64	857.88	850.45
x1 = 0.2436	891.83	887.69	883.56	875.77	868.41
x1 = 0.2865	905.09	900.87	896.69	888.88	881.58
x1 = 0.3275	917.49	913.2	908.97	901.14	893.89
x1 = 0.3852	934.26	929.86	925.57	917.73	910.57
x1 = 0.4259	945.77	941.31	936.97	929.12	922.02
x1 = 0.4784	960.02	955.47	951.09	943.23	936.22
x1 = 0.5248	972.29	967.67	963.24	955.38	948.45
x1 = 0.5649	982.5	977.82	973.35	965.5	958.65
x1 = 0.6126	994.28	989.52	985.02	977.16	970.4
x1 = 0.6539	1004.15	999.34	994.8	986.96	980.27
x1 = 0.6898	1012.51	1007.64	1003.08	995.25	988.63
x1 = 0.7353	1022.74	1017.81	1013.21	1005.4	998.88
x1 = 0.7962	1035.87	1030.87	1026.23	1018.44	1012.05
x1 = 0.8367	1044.36	1039.31	1034.64	1026.87	1020.56
x1 = 0.8823	1053.64	1048.53	1043.84	1036.07	1029.88
x1 = 0.9248	1062.23	1057.07	1052.35	1044.62	1038.5
x1 = 0.9844	1073.74	1068.51	1063.75	1056.05	1050.07

OCCN1CCOCC1 [4-morpholineethanol] + CCCO
mass density [kg/m3]
Conditions	293.15 K	298.15 K	303.15 K	313.15 K	323.15 K
x1 = 0.0441	830.17	823.23	815.35	807.23	799.06
x1 = 0.1025	854.6	847.85	839.76	831.61	823.54
x1 = 0.1771	883.51	877.01	868.66	860.49	852.56
x1 = 0.2366	905.01	898.71	890.18	882	874.19
x1 = 0.2772	919.15	912.99	904.34	896.16	888.43
x1 = 0.3146	931.56	925.53	916.77	908.59	900.94
x1 = 0.3771	951.28	945.46	936.54	928.37	920.85
x1 = 0.4165	962.97	957.29	948.27	940.11	932.69
x1 = 0.478	980.28	974.81	965.64	957.51	950.23
x1 = 0.5135	989.72	984.38	975.14	967.02	959.82
x1 = 0.5792	1006.06	1000.96	991.58	983.5	976.47
x1 = 0.632	1018.06	1013.14	1003.67	995.64	988.74
x1 = 0.6797	1028.12	1023.38	1013.83	1005.84	999.07
x1 = 0.7337	1038.68	1034.12	1024.5	1016.57	1009.94
x1 = 0.7753	1046.19	1041.78	1032.12	1024.22	1017.71
x1 = 0.8136	1052.76	1048.48	1038.78	1030.93	1024.51
x1 = 0.8739	1062.19	1058.11	1048.36	1040.58	1034.34
x1 = 0.9145	1067.81	1063.88	1054.1	1046.38	1040.25
x1 = 0.9442	1071.98	1068.14	1058.34	1050.66	1044.61
x1 = 0.9742	1076.35	1072.61	1062.79	1055.14	1049.16

OCCN1CCOCC1 [4-morpholineethanol] + CCO
mass density [kg/m3]
Conditions	293.15 K	298.15 K	303.15 K	313.15 K	323.15 K
x1 = 0.0543	820.46	817.03	812.82	804.96	794.75
x1 = 0.1127	851.58	847.96	843.64	835.77	824.13
x1 = 0.1873	886.91	883.05	878.64	870.75	857.23
x1 = 0.2468	911.75	907.72	903.24	895.37	880.63
x1 = 0.2874	927.58	923.45	918.93	911.07	–
x1 = 0.3248	941.14	936.91	932.36	924.52	–
x1 = 0.3873	961.89	957.52	952.92	945.11	927.56
x1 = 0.4267	973.69	969.23	964.6	956.83	938.98
x1 = 0.4882	990.98	986.4	981.73	974	955.56
x1 = 0.5237	1000.12	995.47	990.79	983.09	964.48
x1 = 0.5894	1015.56	1010.8	1006.1	998.46	–
x1 = 0.6422	1026.73	1021.89	1017.17	1009.59	–
x1 = 0.6899	1035.93	1031.02	1026.29	1018.76	1001.11
x1 = 0.7439	1045.49	1040.52	1035.78	1028.31	1011.45
x1 = 0.7855	1051.94	1046.91	1042.18	1034.76	1018.98
x1 = 0.8238	1057.63	1052.57	1047.83	1040.46	1025.59
x1 = 0.8841	1065.21	1060.1	1055.37	1048.08	1035.44
x1 = 0.9247	1069.51	1064.37	1059.65	1052.42	1041.71
x1 = 0.9544	1072.49	1067.33	1062.62	1055.43	1046.13
x1 = 0.9844	1075.58	1070.4	1065.69	1058.55	1050.45
